Results from PubChem BioAssay AID1963442 (Molecular Pharmacology Branch, DTP, NCI, 2024).

System: MPNST complex spheroid with HUVEC/MSC, growth, % test/control
Experiment: Anticancer human tumor MPNST cell line growth inhibition [Asc];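 further: compounds left on spheroids for seven days before reading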
Conditions: for IC50: curve of first compound; for viability, T/C: stronger effect = lower value
Procedure, shortened: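 Complex solid-tumor spheroids incorporating human endothelial and mesenchymal stem cells received single agents or combinations over half-log dilution ranges anchored to clinical Cmax.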

[1] = second compound 0.00316 µM, first compound 0.00316 µM
[2] = second compound 0.00316 µM, first compound 0.01 µM
[3] = second compound 0.00316 µM, first compound 0.0316 µM
[4] = second compound 0.00316 µM, first compound 0.1 µM
[5] = second compound 0.01 µM, first compound 0.00316 µM
[6] = second compound 0.01 µM, first compound 0.01 µM
[7] = second compound 0.01 µM, first compound 0.0316 µM
[8] = second compound 0.01 µM, first compound 0.1 µM
[9] = second compound 0.0316 µM, first compound 0.00316 µM
[10] = second compound 0.0316 µM, first compound 0.01 µM
[11] = second compound 0.0316 µM, first compound 0.0316 µM
[12] = second compound 0.0316 µM, first compound 0.1 µM
[13] = second compound 0.1 µM, first compound 0.00316 µM
[14] = second compound 0.1 µM, first compound 0.01 µM
[15] = second compound 0.1 µM, first compound 0.0316 µM
[16] = second compound 0.1 µM, first compound 0.1 µM
[17] = second compound 0.316 µM, first compound 0.00316 µM
[18] = second compound 0.316 µM, first compound 0.01 µM
[19] = second compound 0.316 µM, first compound 0.0316 µM
[20] = second compound 0.316 µM, first compound 0.1 µM
[21] = second compound 1 µM, first compound 0.00316 µM
[22] = second compound 1 µM, first compound 0.01 µM
[23] = second compound 1 µM, first compound 0.0316 µM
[24] = second compound 1 µM, first compound 0.1 µM

Work on `COc1c(OCCCN2CCOCC2)ccc2c3n(c(=NC(=O)c4cnc(N)nc4)nc12)CCN3` + CNC(C)C(=O)NC1CN(S(=O)(=O)c2cccc(S(=O)(=O)N3CCC4CCC(C(=O)NC(c5ccccc5)c5ccccc5)N4C(=O)C(NC(=O)C(C)NC)C3)c2)CCC2CCC(C(=O)NC(c3ccccc3)c3ccccc3)N2C1=O yielded an IC50 (second compound 0.00316 µM) of 17.1 nM, an IC50 (second compound 0.01 µM) of 29.4 nM and an IC50 (second compound 0.0316 µM) of 24.6 nM. For the same molecule, the IC50 (second compound 0.1 µM) was 15.6 nM, the IC50 (second compound 0.316 µM) was 13.2 nM and the IC50 (second compound 1 µM) was 10 nM. For the same molecule, the viability, T/C [1] was 89.4%, the viability, T/C [2] was 66.3% and the viability, T/C [3] was 28.6%. For the same molecule, the viability, T/C [4] was 24.9%, the viability, T/C (second compound 0.00316 µM, first compound 0.316 µM) was 9.54% and the viability, T/C (second compound 0.00316 µM, first compound 1 µM) was 5.55%. The viability, T/C [5] was 81.5%, the viability, T/C [6] was 71.1% and the viability, T/C [7] was 49.9%. It also gave a viability, T/C [8] of 18.6%, a viability, T/C (second compound 0.01 µM, first compound 0.316 µM) of 10.2% and a viability, T/C (second compound 0.01 µM, first compound 1 µM) of 5.07%. The viability, T/C [9] was 104%, the viability, T/C [10] was 61.6% and the viability, T/C [11] was 57.1%. It also gave a viability, T/C [12] of 19.4%, a viability, T/C (second compound 0.0316 µM, first compound 0.316 µM) of 9.82% and a viability, T/C (second compound 0.0316 µM, first compound 1 µM) of 4.9%. It also gave a viability, T/C [13] of 90.1%, a viability, T/C [14] of 59.8% and a viability, T/C [15] of 32.2%. The viability, T/C [16] was 25.8%, the viability, T/C (second compound 0.1 µM, first compound 0.316 µM) was 13.8% and the viability, T/C (second compound 0.1 µM, first compound 1 µM) was 5.12%. For the same molecule, the viability, T/C [17] was 78.7%, the viability, T/C [18] was 52.2% and the viability, T/C [19] was 39.3%. For the same molecule, the viability, T/C [20] was 19.8%, the viability, T/C (second compound 0.316 µM, first compound 0.316 µM) was 11.1% and the viability, T/C (second compound 0.316 µM, first compound 1 µM) was 5.92%. For the same molecule, the viability, T/C [21] was 65.7%, the viability, T/C [22] was 51% and the viability, T/C [23] was 32%. For the same molecule, the viability, T/C [24] was 21.2%, the viability, T/C (second compound 1 µM, first compound 0.316 µM) was 10.2% and the viability, T/C (second compound 1 µM, first compound 1 µM) was 5.66%.

`NC(=O)C(=Cn1cnc(-c2cc(C(F)(F)F)cc(C(F)(F)F)c2)n1)c1cncnc1` + CNC(C)C(=O)NC1CN(S(=O)(=O)c2cccc(S(=O)(=O)N3CCC4CCC(C(=O)NC(c5ccccc5)c5ccccc5)N4C(=O)C(NC(=O)C(C)NC)C3)c2)CCC2CCC(C(=O)NC(c3ccccc3)c3ccccc3)N2C1=O was tested, and the IC50 (second compound 0.00316 µM) was 11.6 nM, the IC50 (second compound 0.01 µM) was 54.6 nM and the IC50 (second compound 0.0316 µM) was 163 nM. For the same molecule, the IC50 (second compound 0.1 µM) was 52.7 nM, the IC50 (second compound 0.316 µM) was 18.1 nM and the IC50 (second compound 1 µM) was 69.8 nM. The viability, T/C (second compound 0.00316 µM, first compound 0.000949 µM) was 68.7%, the viability, T/C (second compound 0.00316 µM, first compound 0.003 µM) was 65% and the viability, T/C (second compound 0.00316 µM, first compound 0.00949 µM) was 49.3%. For the same molecule, the viability, T/C (second compound 0.00316 µM, first compound 0.03 µM) was 43.9%, the viability, T/C (second compound 0.00316 µM, first compound 0.0949 µM) was 28% and the viability, T/C (second compound 0.00316 µM, first compound 0.3 µM) was 30.8%. It also gave a viability, T/C (second compound 0.01 µM, first compound 0.000949 µM) of 78.4%, a viability, T/C (second compound 0.01 µM, first compound 0.003 µM) of 73% and a viability, T/C (second compound 0.01 µM, first compound 0.00949 µM) of 84.1%. The viability, T/C (second compound 0.01 µM, first compound 0.03 µM) was 66.3%, the viability, T/C (second compound 0.01 µM, first compound 0.0949 µM) was 34.6% and the viability, T/C (second compound 0.01 µM, first compound 0.3 µM) was 35.3%. It also gave a viability, T/C (second compound 0.0316 µM, first compound 0.000949 µM) of 58.5%, a viability, T/C (second compound 0.0316 µM, first compound 0.003 µM) of 72% and a viability, T/C (second compound 0.0316 µM, first compound 0.00949 µM) of 70.5%. The viability, T/C (second compound 0.0316 µM, first compound 0.03 µM) was 82.1%, the viability, T/C (second compound 0.0316 µM, first compound 0.0949 µM) was 59.2% and the viability, T/C (second compound 0.0316 µM, first compound 0.3 µM) was 34.9%. For the same molecule, the viability, T/C (second compound 0.1 µM, first compound 0.000949 µM) was 101%, the viability, T/C (second compound 0.1 µM, first compound 0.003 µM) was 80.7% and the viability, T/C (second compound 0.1 µM, first compound 0.00949 µM) was 103%. The viability, T/C (second compound 0.1 µM, first compound 0.03 µM) was 62.3%, the viability, T/C (second compound 0.1 µM, first compound 0.0949 µM) was 37.5% and the viability, T/C (second compound 0.1 µM, first compound 0.3 µM) was 36.9%. It also gave a viability, T/C (second compound 0.316 µM, first compound 0.000949 µM) of 72.6%, a viability, T/C (second compound 0.316 µM, first compound 0.003 µM) of 49.9% and a viability, T/C (second compound 0.316 µM, first compound 0.00949 µM) of 60.5%. The viability, T/C (second compound 0.316 µM, first compound 0.03 µM) was 46%, the viability, T/C (second compound 0.316 µM, first compound 0.0949 µM) was 43.7% and the viability, T/C (second compound 0.316 µM, first compound 0.3 µM) was 34.4%. It also gave a viability, T/C (second compound 1 µM, first compound 0.000949 µM) of 63.2%, a viability, T/C (second compound 1 µM, first compound 0.003 µM) of 59% and a viability, T/C (second compound 1 µM, first compound 0.00949 µM) of 66.2%. It also gave a viability, T/C (second compound 1 µM, first compound 0.03 µM) of 55.6%, a viability, T/C (second compound 1 µM, first compound 0.0949 µM) of 47.8% and a viability, T/C (second compound 1 µM, first compound 0.3 µM) of 36%.

With `NC1CCC(NC2CC2c2ccccc2)CC1` (stereo unspecified) + CNC(C)C(=O)NC1CN(S(=O)(=O)c2cccc(S(=O)(=O)N3CCC4CCC(C(=O)NC(c5ccccc5)c5ccccc5)N4C(=O)C(NC(=O)C(C)NC)C3)c2)CCC2CCC(C(=O)NC(c3ccccc3)c3ccccc3)N2C1=O the IC50 (second compound 0.00316 µM) was over 100 nM, the IC50 (second compound 0.01 µM) was 83.9 nM and the IC50 (second compound 0.0316 µM) was over 100 nM. For the same molecule, the IC50 (second compound 0.1 µM) was over 100 nM, the IC50 (second compound 0.316 µM) was 95.3 nM and the IC50 (second compound 1 µM) was over 100 nM. For the same molecule, the viability, T/C (second compound 0.00316 µM, first compound 0.000316 µM) was 65.4%, the viability, T/C (second compound 0.00316 µM, first compound 0.001 µM) was 91.4% and the viability, T/C [1] was 51.1%. The viability, T/C [2] was 99.5%, the viability, T/C [3] was 55% and the viability, T/C [4] was 52.7%. For the same molecule, the viability, T/C (second compound 0.01 µM, first compound 0.000316 µM) was 72.2%, the viability, T/C (second compound 0.01 µM, first compound 0.001 µM) was 74.9% and the viability, T/C [5] was 79.5%. The viability, T/C [6] was 84.7%, the viability, T/C [7] was 62.6% and the viability, T/C [8] was 47.7%. For the same molecule, the viability, T/C (second compound 0.0316 µM, first compound 0.000316 µM) was 88.5%, the viability, T/C (second compound 0.0316 µM, first compound 0.001 µM) was 63.8% and the viability, T/C [9] was 70.4%. The viability, T/C [10] was 81.8%, the viability, T/C [11] was 61.8% and the viability, T/C [12] was 61.6%. It also gave a viability, T/C (second compound 0.1 µM, first compound 0.000316 µM) of 94.8%, a viability, T/C (second compound 0.1 µM, first compound 0.001 µM) of 79.1% and a viability, T/C [13] of 87.3%. For the same molecule, the viability, T/C [14] was 61.1%, the viability, T/C [15] was 69.5% and the viability, T/C [16] was 54.3%. It also gave a viability, T/C (second compound 0.316 µM, first compound 0.000316 µM) of 83.3%, a viability, T/C (second compound 0.316 µM, first compound 0.001 µM) of 77.2% and a viability, T/C [17] of 69.3%. The viability, T/C [18] was 99.6%, the viability, T/C [19] was 79.6% and the viability, T/C [20] was 48.7%. For the same molecule, the viability, T/C (second compound 1 µM, first compound 0.000316 µM) was 92.9%, the viability, T/C (second compound 1 µM, first compound 0.001 µM) was 59.2% and the viability, T/C [21] was 69.1%. It also gave a viability, T/C [22] of 63.3%, a viability, T/C [23] of 85.2% and a viability, T/C [24] of 55.7%.
